Data published in article PMC3083246 (Journal of medicinal chemistry, 2011).
Values joined by “and” are separate entries in the source; they are usually repeats but may differ in a detail not shown here. Equal entries are not always repeated. Where two headings read alike, the source gives them in different places. One block for each compound: values may come before it.

How the values were obtained:
[1] = test system: Plasmodium falciparum (3D7); assay: Antimalarial activity in cell-based assay; details: 3D7, read-out: IC50, Pf (3D7)
[2] = test system: OCI-AML-1 cell lines (acute myeloid leukemia); details: read-out: IC50, AML-1; ref [17]; cited from earlier work
Mt ODCase [3] = biological target: T1, Mt ODCase (Methanothermobacter thermautotrophicus, UniProt O26232); details: cited from earlier work
[4] = test system: Plasmodium falciparum (3D7); details: read-out: IC50, Pf (3D7); ref [21]; cited from earlier work
CHO = details: read-out: IC50, CHO; ref [21]; cited from earlier work
Mt ODCase [5] = biological target: T1, Mt ODCase; assay: Time-dependent inactivation of Mt ODCase; assay type: biochemical, Methanobacterium thermoautotrophicum
Mt ODCase [6] = biological target: T1, Mt ODCase; details: cited from earlier work; remark: listed apart in the source
human ODCase [7] = biological target: T2, human ODCase (Homo sapiens, UniProt P11172); details: read-out: ODCase Ki, human; competitive inhibition; ref [15],[16],[17]; cited from earlier work
[8] = test system: OCI-AML-1 cell lines (acute myeloid leukemia); assay: Anticancer activity in cell-based assay; details: AML1, read-out: IC50, AML-1
Mt ODCase [9] = biological target: T1, Mt ODCase; assay: Reversible, competitive inhibition of Mt ODCase; assay type: biochemical, Methanobacterium thermoautotrophicum
human ODCase [10] = biological target: T2, human ODCase; assay: Reversible, competitive inhibition of human ODCase; assay type: biochemical
ODCase = ODCase (Methanothermobacter thermautotrophicus, UniProt O26232); assay: Mass spectral analysis of enzyme-inhibitor complexes; set-up: species or system Methanobacterium thermoautotrophicum; details: enzyme incubated with inhibitor; identical results with human ODCase
[11] = ODCase Ki, Mt, competitive inhibition, ITC, 55°C

IC50 [1]: 0.022 ± 0.002 µM
Compound: CCN(CC)CCCC(C)Nc1ccnc2cc(Cl)ccc12 (centres unmarked) [Chloroquine]

Compound: O=c1cnn([C@@H]2O[C@H](CO)[C@@H](O)[C@H]2O)c(=O)[nH]1 [Compound 5, 6-azauridine]
IC50 [2]: 6.1 µM

Compound: NC(=O)c1cc(=O)[nH]c(=O)n1[C@@H]1O[C@H](COP(=O)(O)O)[C@@H](O)[C@H]1O [Compound 6-CONH2-UMP, 6-Amido-UMP]
Ki (Mt ODCase [3]; read-out: Ki, Mt ODCase, text value in mM, ref [15],[21]): 1.32 ± 0.04 mM
Ki (Mt ODCase [3]; read-out: ODCase Ki, Mt, competitive inhibition, ref [15],[21]): 0.00132 ± 4e-05 mM

Compound: O=c1cc(I)n([C@@H]2O[C@H](CO)[C@@H](O)[C@H]2O)c(=O)[nH]1 [Compound 6-I-uridine, 6-iodouridine]
IC50 [4]: 6.2 ± 0.7 µM
IC50 (CHO): 366 ± 45 µM

Compound: O=c1cc(I)n([C@@H]2O[C@H](COP(=O)(O)O)[C@@H](O)[C@H]2O)c(=O)[nH]1 [Compound 10, 6-iodo-UMP]
second-order rate constant relative to 2′-deoxy-2′-fluoro analog 33 (Mt ODCase [5]; higher than 33): ~ 5 orders of magnitude
kobs/[I], M. thermoautotrophicum ODCase (Mt ODCase [6]; irreversible inactivation, ref [16],[22]): 260000 M⁻¹ s⁻¹
kinact (Mt ODCase [6]; text value for the ribofuranosyl analog, ref [16],[22]): 260000 h⁻¹

Compound: N#Cc1cc(=O)[nH]c(=O)n1[C@@H]1O[C@H](COP(=O)(O)O)[C@@H](O)[C@H]1O [Compound 11, 6-CN-UMP]
Ki (Mt ODCase [3]; read-out: ODCase Ki, Mt, competitive inhibition, ref [15],[16],[17]): 0.0286 ± 0.0021 mM
Ki (human ODCase [7]): 204 ± 11 µM

Compound: [N-]=[N+]=Nc1c(F)c(=O)[nH]c(=O)n1[C@@H]1O[C@H](COP(=O)(O)O)[C@@H](O)[C@H]1O [Compound 12, 6-azido-5-fluoro-UMP]
kinact, Mt ODCase (Mt ODCase [6]; first-order rate of inactivation, ref [17]): 41 ± 3 h⁻¹
Ki (Mt ODCase [6]; read-out: KI, Mt ODCase, time-dependent inactivation, ref [17]): 18.2 ± 0.0036 µM

IC50 [8]: > 50 µM
Compound: O=c1cc(I)n([C@@H]2O[C@H](CO)[C@@H](O)[C@H]2F)c(=O)[nH]1 [Compound 27, 2′-Deoxy-2′-fluoro-6-iodo-β-D-uridine]

IC50 [8]: > 50 µM
Compound: [N-]=[N+]=Nc1cc(=O)[nH]c(=O)n1[C@@H]1O[C@H](CO)[C@@H](O)[C@H]1F [Compound 28, 6-Azido-2′-deoxy-2′-fluoro-β-D-uridine]

IC50 [8]: > 50 µM
Compound: N#Cc1cc(=O)[nH]c(=O)n1[C@@H]1O[C@H](CO)[C@@H](O)[C@H]1F [Compound 29, 6-Cyano-2′-deoxy-2′-fluoro-β-D-uridine]

IC50 [8]: > 50 µM
Compound: NC(=O)c1cc(=O)[nH]c(=O)n1[C@@H]1O[C@H](CO)[C@@H](O)[C@H]1F [Compound 30, 6-Amido-2′-deoxy-2′-fluoro-β-D-uridine]

IC50 [8]: > 50 µM
Compound: N#Cc1cn([C@@H]2O[C@H](CO)[C@@H](O)[C@H]2F)c(=O)[nH]c1=O [Compound 31, 5-Cyano-2′-deoxy-2′-fluoro-β-D-uridine]

Compound: N#Cc1cc(=O)[nH]c(=O)n1[C@@H]1O[C@H](COP(=O)(O)O)[C@@H](O)[C@H]1F [Compound 35, 6-Cyano-2′-deoxy-2′-fluoro-β-D-uridine-5′-O-monophosphate]
Ki (Mt ODCase [9]; [11]): 0.037 ± 0.0025 mM
Ki (human ODCase [10]): > 2000 µM
inhibition of the catalytic activity of human ODCase (human ODCase [10]; up to a concentration of 2 mM): did not inhibit
KI (inactivation) (Mt ODCase [5]; read-out: KI, equilibrium inhibition constant of inactivation, Mt ODCase, time-dependent inactivation): 30000 ± 6000 µM
kinact (Mt ODCase [5]; read-out: kinact, Mt ODCase): 0.000556 s⁻¹
enzyme-inhibitor complex by mass spectrometry (ODCase): covalent complex

Compound: NC(=O)c1cc(=O)[nH]c(=O)n1[C@@H]1O[C@H](COP(=O)(O)O)[C@@H](O)[C@H]1F [Compound 36, 6-Amido-2′-deoxy-2′-fluoro-β-D-uridine-5′-O-monophosphate]
Ki (Mt ODCase [9]; Ki, Mt ODCase, text values in mM): > 3 mM and 3.32 mM
Ki (Mt ODCase [9]; [11]): 3.32 ± 0.176 mM
Ki (human ODCase [10]): > 3000 µM

Compound: N#Cc1cn([C@@H]2O[C@H](COP(=O)(O)O)[C@@H](O)[C@H]2F)c(=O)[nH]c1=O [Compound 37, 5-Cyano-2′-deoxy-2′-fluoro-β-D-uridine-5′-O-monophosphate]
Ki (Mt ODCase [9]; [11]): 0.36 ± 0.023 mM
Ki (human ODCase [10]): 759 ± 88 µM
